Read-outs that look alike come from different tables or passages of the source.
Experiments:
plasma lipase = test: Effect of long term treatment on plasma lipase activity; format: in vivo, male WBN/Kob rats; conditions: 9.5 months; for Plasma Lipase Activity: control 33.7 ± 7.8
Source text: In pancreatitis, secretion of digestive enzymes is impaired and delivery of digestive enzymes to the duodenum is reduced. In addition, digestive enzymes leak into the blood and their level in the blood and urine increase. Accordingly, the extent of pancreatitis can be estimated by measuring the amount of digestive enzymes which have leaked into the blood (Methods of Clinical Examination: Kinbara Publisher).
The measurement of digestive enzymes may also be carried out by conventional procedures. For example, after the test drug mixed into powdered feed has been administered to male WBN/Kob rats for a definite period, the blood may be collected and the lipase activity (one of the digestive enzymes) in the plasma may be measured.
(§1) The test animals were male WBN/Kob rats. Each group of test animals contained 6 animals, and the animals were used for the experiment when they had reached 12 weeks old. The animals were fed with powdered feed F2 mixed with 0.2% or 0.05% of troglitazone for 9.5 months. These groups are hereinafter referred to as "the 0.2% group" and "the 0.05% group", respectively. The average doses of the compound during this period were 120 mg/kg/day and 30 mg/kg/day, respectively. Meanwhile, another six rats (control group) were fed with the powdered feed F2 only. After the rats had been fed with the feeds for 9.5 months, each rat was decapitated and its blood was collected. The blood serum was separated and the plasma lipase level was measured using an autoanalyser (type 7250, manufactured by Hitachi Ltd.).

Acute toxicity = format: in vivo, ddY mice (male); conditions: single oral dose of 300 mg/kg, observed for 5 days, three mice
Description: Acute toxicity was assayed by conventional procedures. […] At the end of this time, the animals were all alive. When the acute toxicities of Compounds No. 2, 3, 4 and 10 were measured in the same manner, the mice were all alive after an oral dose of 300 mg/kg or more.

[1] = format: in vivo, Wistar-Imamichi rats; conditions: 170 mg/kg/day
Source text: (§2) Since the decrease in the amount of pancreatic parenchyma resulting from chronic pancreatitis causes loss of pancreatic weight, any suppression of the decrease in the amount of pancreatic parenchyma can be used as an index for evaluating any improvement in the pancreatitis. Furthermore, since degeneration and necrosis of the pancreatic parenchyma and its replacement by connective tissue occurs in chronic pancreatitis, the seriousness of the pancreatitis can be estimated by histopathologically measuring the area over which the pancreatic parenchyma is replaced with connective tissue (known as the "cicatrized area").
(§3) Measurement of the weight of the pancreas may be carried out by conventional procedures after the experimental animals have been sacrificed by phlebotomy.
The effects of pancreatitis may be simulated, as is conventional, in experimental animals, by the administration of streptozotocin [(N-methylnitroso-carbamoyl)-D-glucosamine: R. A. Bennett et al., Cancer Res., 41, 2786-2790, (1981); a product of Sigma Chemical Company], which is capable of specifically destroying the Langerhans islet B cells and which thus induces a decrease in pancreatic weight. Streptozotocin is administered intravenously to the experimental animal, and then a powdered feed admixed with a test compound is given to a group of animals which have been dosed with streptozotocin. This group is hereafter referred to as the "treated group". Meanwhile, a powdered feed only is given to another group of animals which have been dosed with streptozotocin. This group is hereafter referred to as the "control group". Normal animals (undosed) fed with the feed only are also used as a blank group against the experimental animals (dosed with streptozotocin). After the test compounds have been administered to the animals for a predetermined period, each animal is sacrificed to measure its pancreatic weight. […]
Meanwhile, another group of rats was fed with the powdered feed F2 only. […] After a predetermined period, the rats were sacrificed and the pancreatic weight of each animal was measured.

[2] = Effect of long term treatment on pancreatic weight; format: in vivo, male WBN/Kob rats; conditions: 9.5 months; for Pancreatic weight: control 804 ± 35
Description: as §1
After the blood had been collected, the pancreas of each animal was totally enucleated and weighed.

[3] = Increase in the pancreatic weight in a model of spontaneous chronic pancreatitis (3 months); format: in vivo, male WBN/Kob rats; conditions: treated group, 0.2% in feed, 140 mg/kg/day, three months; control 773 ± 17; **p < 0.01 vs. control
Source text: as §2, §3
The test animals were male WBN/Kob rats, which are commonly used as models of spontaneous chronic pancreatitis and suffer pancreatic weight loss and dysfunction of the exocrine pancreatic tissue due to degeneration and necrosis of the pancreatic parenchyma and its replacement by connective tissue [Tsuchitani et al., Laboratory Animals, 19(3), 200-207, (1985)]. […] After the rats had been fed with the feeds for three months, the pancreas of each animal was totally enucleated and its weight was measured.

[4] = 0.05% group, 30 mg/kg/day in feed
[5] = both the 0.2% group and the 0.05% group, vs. control group

## Cc1c(C)c2c(c(C)c1O)CCC(C)(COc1ccc(CC3SC(=O)NC3=O)cc1)O2 (centres unmarked) [troglitazone, 5-[4-(6-Hydroxy-2,5,7,8-tetramethylchroman-2-ylmethoxy)benzyl]thiazolidine-2,4-dione]
Plasma lipase; [4]
  Plasma Lipase Activity: 17.5 ± 2.2 IU/l
Plasma lipase; 0.2% group, 120 mg/kg/day in feed, *p < 0.05
  Plasma Lipase Activity: 13.2 ± 1.0 IU/l
Plasma lipase; [5]
  Plasma lipase activity (in words): significant decrease
Acute toxicity
  Survival (acute toxicity): all alive
[1]; 0.2% in feed, 14 days, vs. control group
  Inhibition of pancreatic weight loss (in words): significantly inhibited the pancreatic weight loss
[1]; rat, in vivo
  Lesions such as edema in the pancreas: no lesions such as edema
[1]; treated group, 0.2% in feed, 14 days, after streptozotocin 25 mg/kg i.v., normal 1333 ± 43, control 1253 ± 39, *p < 0.05 vs. control
  Pancreatic weight: 1435 ± 40 mg
[2]; [4]
  Pancreatic weight: 906 ± 63 mg
[2]; 0.2% group, 120 mg/kg/day in feed, ***p < 0.001
  Pancreatic weight: 1164 ± 52 mg
[2]; [5]
  Pancreatic weight (in words): significant increase
[3]
  Pancreatic weight: 936 ± 27 mg
